Measured values as given in PubChem BioAssay AID1996.
Converted amounts (≈) assume the structure as drawn.

settings: buffer; pH 7.4; 200.0 µM

| solubility kinetic | SMILES |
| --- | --- |
| > 44.4 µg/mL | CC(=O)Cc1nsc(NC(=O)c2ccccc2Cl)n1 |
| > 34.4 µg/mL | COCCc1nnc(NC(=O)C(C)C)s1 |
| 4 µg/mL (≈ 12.6 µM) | O=C(CCc1ccccc1)Nc1nc2c(F)cc(F)cc2s1 |
| > 44.3 µg/mL | O=C(O)c1ccccc1C(=O)NC1CCCc2ccccc21 (stereo not given) |
| 4 µg/mL (≈ 11.7 µM) | CCCc1c(C)nc(N2CCN(c3cccc(OC)c3)CC2)[nH]c1=O |
| > 51.1 µg/mL | COC(=O)n1c(=O)oc2ccc(S(=O)(=O)N3CCCCC3)cc21 |
| 5.6 µg/mL (≈ 17.8 µM) | O=C(Nc1nccs1)c1ccc(-c2ccccc2[N+](=O)[O-])o1 |
| 4.5 µg/mL (≈ 13.9 µM) | Cc1ccsc1C(=O)OCC(=O)NCc1ccc(Cl)cc1 |
| > 44.6 µg/mL | Br.CC1=C(c2ccccc2)SC2=NCCN21 |
| 0.4 µg/mL (≈ 1.24 µM) | COC(=O)c1cn(CC(=O)Nc2ccccc2C)c2ccccc12 |
| > 66.1 µg/mL | O=S(=O)(NC1=NCCC1)c1cccc(NC(=S)Nc2ccc(OC(F)F)cc2)c1 |
| > 47.1 µg/mL | CCC(OCC(O)CN1CCCCC1)c1ccccc1.Cl (stereo not given) |
| 44.8 µg/mL (≈ 137 µM) | NC(=O)COC(=O)CNC(=O)c1sc2ccccc2c1Cl |
| > 46.6 µg/mL | CC(NC(=O)C(C)(C)C)C(c1cccs1)N1CCOCC1 (stereo not given) |
| > 45.9 µg/mL | COc1ccc(Cl)cc1C(=O)O/N=C(\N)c1ccccn1 |
| 48.1 µg/mL (≈ 143 µM) | CCOc1ccccc1N(C)C(=O)c1cn(C)c(=O)c2ccccc12 |
| > 48.7 µg/mL | Cl.N=c1n(CCO)c2ccccc2n1CCN1CCCCC1 |
| 8.2 µg/mL (≈ 24 µM) | CSc1sc(-c2ccnc(=S)[nH]2)c(-c2ccccc2)c1C#N |
| 36.3 µg/mL (≈ 136 µM) | CC(C)=CC(=O)OCC(=O)Nc1ccc(Cl)cc1 |
| 57.4 µg/mL (≈ 145 µM) | COc1ccc(C(=O)N2CCC2)cc1S(=O)(=O)NCc1ccc(Cl)cc1 |
| 0.9 µg/mL (≈ 2.5 µM) | COc1cc(Br)c(Br)c(Br)c1N |
| 14.3 µg/mL (≈ 40.6 µM) | CCCC/C(O)=C1\C(=O)CCCC1=NCCc1c(C)[nH]c2ccccc12 |
| 29.9 µg/mL (≈ 99.6 µM) | COc1cccc(CN2CCN(c3ccc(F)cc3)C2=O)c1 |
| 8.6 µg/mL (≈ 17.7 µM) | CC(=O)Nc1ccc2c(COC(=O)[C@@H](NS(=O)(=O)c3ccc(C)cc3)C(C)C)cc(=O)oc2c1 |

| solubility kinetic | SMILES |
| --- | --- |
| 17.4 µg/mL (≈ 60.5 µM) | CCc1ccc(NC(=O)c2cnc(SC)nc2C)cc1 |
| 4.5 µg/mL (≈ 16 µM) | Cc1cccc(-n2c(C)c(-c3ccccc3)[nH]c2=S)c1 |
| 6 µg/mL (≈ 21.8 µM) | CCOC(=O)c1ccc(NC(=O)Nc2ccon2)cc1 |
| > 72.1 µg/mL | CC(=O)c1cccc(NC(=O)CSc2nc3ccccc3c(=O)n2CCCN2CCOCC2)c1 |
| 3 µg/mL (≈ 8.68 µM) | CNC(=S)N(CCc1c(C)[nH]c2ccc(F)cc12)Cc1ccco1 |
| 2.6 µg/mL (≈ 8.19 µM) | O=S(=O)(c1ccc(F)cc1)N1CC=C(c2ccccc2)CC1 |
| > 47.2 µg/mL | COc1ccccc1NC(=O)CC(=O)Nc1ccccc1OC |
| > 36.9 µg/mL | COC(=O)CCc1nc2ccccc2nc1OC |
| < 0.4 µg/mL | COc1ccc(Cl)cc1NC(=O)NCc1ccc2c(c1)OCO2 |
| > 65.5 µg/mL | C=CCn1c(SCC(=O)N(C)CC(=O)Nc2ccc(C)cc2)nnc1-c1ccncc1 |
| > 47.2 µg/mL | CCOC(=O)c1c(S(=O)(=O)N2CCCC2)c(C)n(C)c1C |
| > 54.8 µg/mL | Cn1cccc1C(=O)OCC(=O)NCCc1ccc(S(N)(=O)=O)cc1 |
| 41.2 µg/mL (≈ 135 µM) | Cc1cc(S(=O)(=O)Nc2noc3ccccc23)ccc1F |
| 7.7 µg/mL (≈ 24.3 µM) | CC(=O)c1ccccc1NC(=O)COC(=O)CCC1CCCC1 |
| 3.1 µg/mL (≈ 10.1 µM) | COc1ccc2oc(=N)c(C(=O)NCc3ccccc3)cc2c1 |
| < 0.4 µg/mL | COc1cc2c(cc1OC)CN(C(=S)Nc1ccc(Cl)cc1)CC2 |
| 2.3 µg/mL | Cl.Oc1cccc(Nc2ncnc3c2oc2ccccc23)c1 |
| 42.8 µg/mL (≈ 143 µM) | C=CCc1cccc2cc(C(=O)N3CCOCC3)c(=O)oc12 |
| > 42.5 µg/mL | Cc1nc2c(C)cccn2c(=O)c1NC(=O)c1ccco1 |
| > 24 µg/mL | Cc1nc2ccccc2[nH]c1=O |
| > 49.3 µg/mL | O=C(Nc1ccccc1)N(c1ccccc1)C1C=CS(=O)(=O)C1 (stereo not given) |
| 1 µg/mL (≈ 3.35 µM) | Cc1cccc(C(=O)NC(=S)NC(C)c2ccccc2)c1 (stereo not given) |
| 0.7 µg/mL (≈ 2.26 µM) | c1ccc(-c2ccc(C(c3ccccc3)n3ccnc3)cc2)cc1 (stereo not given) |
| > 36.3 µg/mL | O=C1OCCN1S(=O)(=O)Nc1ccccc1 |

| solubility kinetic | SMILES |
| --- | --- |
| < 0.7 µg/mL | O=C(CC12CC3CC(CC(C3)C1)C2)Nc1c(F)cccc1F |
| 0.9 µg/mL (≈ 2.41 µM) | COc1ccc([N+](=O)[O-])c(OC)c1C(=O)NC(=O)Nc1c(C)cccc1C |
| 33.2 µg/mL (≈ 111 µM) | COc1ccccc1CCNC(C)CCc1ccc(O)cc1 (stereo not given) |
| > 52.3 µg/mL | O=C(COC(=O)c1ccc([N+](=O)[O-])o1)NC12CC3CC(CC(C3)C1)C2 |
| 56.5 µg/mL (≈ 147 µM) | COc1ccccc1C(=O)COC(=O)C(NC(=O)Cc1ccccc1)C(C)C (stereo not given) |
| 1 µg/mL (≈ 3.62 µM) | Cc1ccccc1NC(=S)NC(=O)C1CCCCC1 |
| 0.6 µg/mL (≈ 1.69 µM) | CCCN1CCN(C(=S)Nc2sc(CC)cc2C(=O)OC)CC1 |
| > 39.4 µg/mL | Cc1cccc(NC(=S)N2CCCCCC2)c1C |
| 32.6 µg/mL (≈ 122 µM) | COc1ccc(C(=O)OCC(=O)NC2CC2)cc1F |
| 43.8 µg/mL (≈ 149 µM) | CC1CN(C(=O)COC(=O)c2ccc(O)cc2)CC(C)O1 (stereo not given) |
| 37.5 µg/mL (≈ 126 µM) | Cc1ccccc1-c1noc(C(C)NC(=O)c2ccco2)n1 (stereo not given) |
| 45.2 µg/mL (≈ 135 µM) | CCN1CCN(c2ccc(NC(=O)c3ccco3)cc2Cl)CC1 |
| 22.7 µg/mL (≈ 107 µM) | c1cncc(-c2nc3ccccc3s2)c1 |
| 41.7 µg/mL (≈ 118 µM) | CC1CN(CCc2ccccc2)c2nc3c(c(=O)n(C)c(=O)n3C)n2C1 (stereo not given) |
| > 36.8 µg/mL | CC(C)(C)OC(=O)NCCc1n[nH]c(=S)o1 |
| > 53.9 µg/mL | COc1ccccc1CNC(=O)CN1C(=O)NC2(CCC(C)CC2)C1=O (stereo not given) |
| > 48.4 µg/mL | COC(=O)CNC(=O)C1CC(=O)N(CCc2ccc(F)cc2)C1 (stereo not given) |
| 35.8 µg/mL (≈ 143 µM) | O=C1ON=C(c2ccccc2)/C1=C/c1cccnc1 |
| > 46.8 µg/mL | O=C(Cn1ncc2c([nH]c3ccccc32)c1=O)N1CCOCC1 |
| 35.1 µg/mL (≈ 149 µM) | C=CCNC(=S)/N=c1/ccccn1CCC |
| 7.4 µg/mL (≈ 15.1 µM) | NS(=O)(=O)c1cccc(Nc2nc3ccccc3nc2NS(=O)(=O)c2ccc(Cl)cc2)c1 |
| 4.4 µg/mL (≈ 13.9 µM) | COc1ccccc1NC(=O)COC(=O)/C=C/c1cccs1 |
| > 36.5 µg/mL | CSc1nc(-c2ccccc2)c(C#N)c(=O)[nH]1 |
| 14.8 µg/mL (≈ 46.3 µM) | CCn1c(=O)c([N+](=O)[O-])c(N2CCSCC2)c2ccccc21 |

| solubility kinetic | SMILES |
| --- | --- |
| 41.1 µg/mL (≈ 125 µM) | O=C(Nc1ncc([N+](=O)[O-])s1)c1ccccc1Br |
| > 44.3 µg/mL | CCCc1cc(=O)[nH]c(SCC(=O)N2CCCC2=O)n1 |
| > 47.2 µg/mL | c1cncc(C2OCC3(CO2)COC(c2cccnc2)OC3)c1 (stereo not given) |
| 46.9 µg/mL (≈ 141 µM) | O=S(=O)(NCCN1CCCC1)c1ccc(Br)cc1 |
| > 46.9 µg/mL | COc1cccc(NC(=O)C2CCN(c3cnccn3)CC2)c1 |
| > 40.4 µg/mL | O=S(=O)(Nc1cccc(CO)c1)c1cccs1 |
| 3.1 µg/mL (≈ 10 µM) | COc1ccc2nc(N/C(N)=N/S(C)(=O)=O)nc(C)c2c1 |
| > 42.5 µg/mL | Cc1ccccc1NC(=O)CON=C(N)c1ccccc1 |
| 36.3 µg/mL (≈ 141 µM) | CCOc1ccccc1NC(=O)Nc1ccncc1 |
| > 42.2 µg/mL | CC1(C(=O)Nc2ccccc2)Cc2ccccc2C(=O)O1 (stereo not given) |
| 3.4 µg/mL (≈ 10 µM) | Cc1ccc(C(=O)NCC(C)NC(=O)c2ccc(C)c(C)c2)cc1C (stereo not given) |
| 5.3 µg/mL (≈ 17.8 µM) | COc1ccccc1NC(=O)NCCCCc1ccccc1 |
| > 42.7 µg/mL | Cc1cc(/C=C(\C#N)C(=O)N2CCCCC2)cc(C)c1O |
| 36.5 µg/mL (≈ 121 µM) | O=C(CCN1C(=O)c2ccccc2C1=O)CN1CCOCC1 |
| > 28.5 µg/mL | Nc1ccccc1C(=O)N1CCCC1 |
| > 39.1 µg/mL | Cc1cc(/C=C(\C#N)C(=O)O)c(C)n1CCC(C)C |
| > 50.4 µg/mL | CCC(=O)Nc1cc(C(=O)O)ccc1Sc1ccc(Cl)cc1 |
| > 39.9 µg/mL | Cl.N=c1ccn(Cc2ccc([N+](=O)[O-])cc2)cc1 |
| 3.9 µg/mL (≈ 11.5 µM) | Cc1ccc(NC(=O)Cn2cnc3cc([N+](=O)[O-])ccc3c2=O)cc1 |
| > 37.2 µg/mL | C=CC[N+]1(CC=C)CCOCC1.[Br-] |
| 1.9 µg/mL (≈ 5.58 µM) | O=C(NCc1ccc2c(c1)OCO2)c1ccc(Br)s1 |
| 47.7 µg/mL (≈ 138 µM) | O=S(=O)(Nc1cccnc1Cl)c1ccc(-c2ccccc2)cc1 |
| 7.5 µg/mL (≈ 24.1 µM) | COC(=O)/C(C#N)=C/c1c(-c2ccccc2)nc2n1CCS2 |
| 3.1 µg/mL (≈ 11.9 µM) | O=C(NCc1ccccc1)C(=O)Nc1nccs1 |

| solubility kinetic | SMILES |
| --- | --- |
| 17.3 µg/mL (≈ 44.1 µM) | Cc1cc(=O)oc2cc(OCC(=O)N3c4ccccc4NC(=O)C3(C)C)ccc12 |
| 47.7 µg/mL | Cl.OC(CNCc1ccc(Cl)c(Cl)c1)c1ccccc1 (stereo not given) |
| 7.6 µg/mL (≈ 31.4 µM) | Cc1ccc2[nH]c(C(=O)N3CCCCC3)cc2c1 |
| > 46.8 µg/mL | Cc1nc2sc3c(c2c(=O)n1NC(=O)CCl)CCCC3 |
| 9.8 µg/mL (≈ 29.5 µM) | COc1ccnc2c1c(=O)n(Cc1cccc(Cl)c1)c(=O)n2C |
| > 41 µg/mL | O=C(O)c1cc([N+](=O)[O-])ccc1NCc1cccnc1 |
| > 43.6 µg/mL | COc1ccccc1CNC(=O)C1CCC(=O)N1C(C)C (stereo not given) |
| 4.7 µg/mL (≈ 14.4 µM) | Cc1cccnc1NC(=S)NC(=O)c1oc2ccccc2c1C |
| > 65 µg/mL | CCS(=O)(=O)c1ccc(O)c(NC(=O)c2cc(-c3ccccn3)nc3ccccc23)c1 |
| 2.8 µg/mL (≈ 10.1 µM) | CC1CCC(NC(=O)c2cc3c(s2)CCCC3)CC1 (stereo not given) |
| 40.3 µg/mL (≈ 129 µM) | O=C(CCc1c[nH]c2ccccc12)NCc1cccc(Cl)c1 |
| 2.3 µg/mL (≈ 7.39 µM) | Nc1nc(-c2cc(Cl)cc(Cl)c2OC(F)F)cs1 |
| > 53 µg/mL | COc1cc(C(=O)OCC(=O)NCC2CCCO2)cc(OC)c1OC (stereo not given) |
| > 41.6 µg/mL | CC(=O)N1c2ccccc2-c2nc3ccccc3n2C1C (stereo not given) |
| 4.5 µg/mL (≈ 14.2 µM) | Cc1cc(S(=O)(=O)Nc2cccnc2)c(Cl)cc1Cl |
| 12 µg/mL (≈ 41.3 µM) | COc1ccccc1CNC(=S)Nc1ccc(F)cc1 |
| < 0.3 µg/mL | COc1ccc(-c2cc(C(=O)Nc3cccc(O)c3)no2)cc1 |
| > 34.4 µg/mL | O=C(O)c1cc2nccc(-c3ccco3)n2n1 |
| 11.5 µg/mL (≈ 31.5 µM) | CCN(Cc1cc2cc(C)ccc2[nH]c1=O)C(=O)c1cccc([N+](=O)[O-])c1 |
| 6.8 µg/mL (≈ 19.5 µM) | CCOc1cc(NC(=O)CCl)c(OCC)cc1NC(=O)CCl |
| 20.6 µg/mL (≈ 75.9 µM) | Cc1cc(C)cc(NC(=S)NCc2ccncc2)c1 |
| 8.3 µg/mL (≈ 34.4 µM) | CN1/C(=C/C(=O)C2CC2)C(C)(C)c2ccccc21 |

| SMILES | solubility kinetic |
| --- | --- |
| Cc1cc(Cl)ccc1C(=O)C1CCCN(Cc2ccon2)C1 (stereo not given) | 46.3 µg/mL (≈ 145 µM) |
| COc1ccc2ccc(O)c(CN3CC=C(c4ccccc4)CC3)c2c1 | 1.6 µg/mL (≈ 4.63 µM) |
